Where two headings read alike, the source gives them in different places.
Columns and labels:
Assay type in all cases: in vivo
[1] = system: Rhizoctonia solani (AG 2); assay: Use example FG-8: efficacy against R. solani assessed on first leaf, pot trials, seed treatment; conditions: 10 g ai per 100 kg seeds, corn
Protocol: (§1) Triticonazole was applied as commercial seed treatment formulation PREMIS 25 FS (25 g/L a.i., BASF SE, Ludwigshafen, Germany). Pyraclostrobin was applied as commercial seed treatment formulation STAMINA (200 g/L a.i., BASF SE, Ludwigshafen, Germany).
(§2) In 4 pot tests in the greenhouse in Limburgerhof, Bacillus subtilis MBI600, as SC formulation of spores with CFU of about 4×10^11 per ml, was tested in the crops corn and rape seed against different pathogens (Fusarium, Rhizoctonia, Scleroftinia) as solo product and in combination with triticonazole or pyraclostrobin. […]
(§3) The efficacy (E) was calculated using the Abbot's formula: E=(1−α/β)·100 • α corresponds to the fungicidal infection of the treated plants in % and • β corresponds to the fungicidal infection of the untreated (control) plants in %
(§4) The expected efficacies of active compound combinations were determined using Colby's formula (Colby, S. R. “Calculating synergistic and antagonistic responses of herbicide combinations”, Weeds 15, pp. 20-22, 1967) and compared with the observed efficacies. […]
(§5) For the assessment, the roots were washed out to evaluate the disease symptoms on the roots. […] In corn in addition the disease symptoms on the first leaf were evaluated according to a 2 class evaluation. […]

[2] = system: Rhizoctonia solani (AG 2); assay: Use example FG-8: efficacy against R. solani on roots, pot trials, seed treatment; conditions: 10 g ai per 100 kg seeds
Protocol: as §1, §2, §3, §4, §5

[3] = system: Rhizoctonia solani (AG 2); assay: Use example FG-8: root mass affected by R. solani, pot trials, seed treatment; conditions: 10 g ai per 100 kg seeds; corn infected with R. solani
Protocol: as §1
as §2, with “pyraclostrobin. The application of the different products was done as seed treatment and the seeds were treated in the BASF Seed Solutions Technology Center (SSTC) Limburgerhof using a batch lab treater.” for “pyraclostrobin.”
as §4
For the assessment, the roots were washed out to evaluate the disease symptoms on the roots. […] In corn in addition the disease symptoms on the first leaf were evaluated according to a 2 class evaluation. The figures from the class evaluation were converted into efficacies in % of the untreated control and the efficacy (E) was calculated as follows using Abbot's formula.

[4] = system: Fusarium graminearum; conditions: 5 g ai per 100 kg seeds; corn, mesocotyl
[5] = system: Fusarium graminearum; conditions: 5 g ai per 100 kg seeds; corn, lower roots; % of untreated control (Abbot)

Row | Structure (SMILES) | Observed efficacy (%) [1] [%] | Observed efficacy (%) [2] [%] | Root mass in % of uninfected control [3] [%] | Observed efficacy [4] [%] | Observed efficacy [5] [%]
1 | COC(=O)N(OC)c1ccccc1COc1ccn(-c2ccc(Cl)cc2)n1 [Pyraclostrobin] | 1.9 | 28.7 | 23.3 |  | 
2 | CC1(C)CCC(=Cc2ccc(Cl)cc2)C1(O)Cn1cncn1 (centres unmarked) [Triticonazole] |  |  |  | 60 | 39.8

— patent US11284623B2 (priority 2012, dated 2022)
